Measured values as given in BindingDB's records for doi:10.7270/Q2Q52N82 (The Scripps Research Institute Molecular Screening Center, 2012).

These molecules were tested against ADP-ribosylation factor GTPase-activating protein 1 (Rattus norvegicus, UniProt Q62848).
Sequence of ADP-ribosylation factor GTPase-activating protein 1 (Q62848 whole entry): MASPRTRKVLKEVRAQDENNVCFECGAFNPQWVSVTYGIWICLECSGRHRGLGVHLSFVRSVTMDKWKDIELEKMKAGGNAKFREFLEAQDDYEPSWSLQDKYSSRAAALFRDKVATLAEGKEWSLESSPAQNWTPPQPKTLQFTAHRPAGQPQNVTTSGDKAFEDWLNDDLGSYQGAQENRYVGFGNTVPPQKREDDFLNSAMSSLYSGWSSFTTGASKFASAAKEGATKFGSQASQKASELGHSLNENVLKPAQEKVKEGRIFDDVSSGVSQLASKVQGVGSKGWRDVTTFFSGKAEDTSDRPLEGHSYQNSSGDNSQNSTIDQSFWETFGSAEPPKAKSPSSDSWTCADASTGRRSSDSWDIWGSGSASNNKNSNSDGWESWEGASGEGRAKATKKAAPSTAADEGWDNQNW

Compound	IC50
CC(=O)c1cccc(NC(=O)c2cccc3c(-c4cnn(C)c4)coc23)c1 [MLS003120506]	> 165 µM
CC(C)=CCC/C(C)=C/Cc1c(O)ccc(C(=O)/C=C/c2ccc(O)cc2)c1O	> 165 µM
CN(C)CCNC(=O)c1ccc(-c2cn3c(-c4ccc(Oc5ccccc5)cc4)cnc3cn2)cc1 [MLS003123272]	> 18.3 µM
CC1CC(C)CN(C(=O)COC(=O)c2cc3ccccc3cc2O)C1 (stereo not given) [[2-(3,5-dimethylpiperidin-1-yl)-2-oxidanylidene-ethyl] 3-oxidanylnaphthalene-2-carboxylate]	> 165 µM
O=NCc1ccc2noc(-c3ccc(Cl)cc3)c2c1 [SMR000549694]	50.7 µM
Cc1ccc2nc(SCC(=O)c3ccc(Cl)cc3)nc(=O)n2c1	> 165 µM
CCC(/C=C1\Sc2ccc(OC)cc2N1CCO)=C\c1sc2ccc(OC)cc2[n+]1CCO	> 165 µM
O=C(Nc1ccc(CN2CCOCC2)cc1)c1ccc(-c2cc(Cl)ccc2Cl)o1 [5-(2,5-dichlorophenyl)-N-[4-(4-morpholinylmethyl)phenyl]-2-furamide]	> 165 µM
C=CCNc1nc(NCc2cccc(OC)c2)c2sc(-c3ccccc3)cc2n1 [N4-[(3-methoxyphenyl)methyl]-6-phenyl-N2-prop-2-enyl-thieno[3,2-d]pyrimidine-2,4-diamine]	> 165 µM
c1ccc(-c2cc(-c3nnc4sc(-c5ccccn5)nn34)[nH]n2)cc1 [3-(3-phenyl-1H-pyrazol-5-yl)-6-(2-pyridinyl)-[1,2,4]triazolo[3,4-b][1,3,4]thiadiazole]	> 165 µM
CCOc1ccc2oc(C(=O)OCC(=O)N3CC(C)OC(C)C3)c(C)c2c1 (stereo not given) [[2-(2,6-dimethylmorpholin-4-yl)-2-oxoethyl] 5-ethoxy-3-methyl-1-benzofuran-2-carboxylate]	> 165 µM
C=c1cc2[nH]c(=O)c(=Cc3ccc(-c4cccc(Cl)c4)o3)c(=N)n2o1 [(6Z)-6-[[5-(3-chlorophenyl)-2-furanyl]methylidene]-7-imino-2-methyl-5-isoxazolo[2,3-a]pyrimidinone]	> 2.03 µM
COc1ccc(-c2cc3ccccc3oc2=O)cc1NC(=O)c1cccnc1 [N-[2-methoxy-5-(2-oxidanylidenechromen-3-yl)phenyl]pyridine-3-carboxamide]	> 165 µM
Cc1ccc2nc(SCC(=O)Nc3cccc(Cl)c3)nc(=O)n2c1 [MLS001234985]	> 18.3 µM
COCC(C)n1c(C)cc(C(=O)CN2c3cccc4cccc(c34)S2(=O)=O)c1C (stereo not given) [MLS002169376]	> 165 µM
